One experiment deals with T1, mFsp1 (mouse FSP1) (Mus musculus, UniProt Q8BUE4).
T1 construct: gene Aifm2; recombinant from E. coli BL21, Ni-NTA purified; HA-tagged, codon-optimized in Pfa1 cells for cell assays
T1 sequence (Q8BUE4 2-373): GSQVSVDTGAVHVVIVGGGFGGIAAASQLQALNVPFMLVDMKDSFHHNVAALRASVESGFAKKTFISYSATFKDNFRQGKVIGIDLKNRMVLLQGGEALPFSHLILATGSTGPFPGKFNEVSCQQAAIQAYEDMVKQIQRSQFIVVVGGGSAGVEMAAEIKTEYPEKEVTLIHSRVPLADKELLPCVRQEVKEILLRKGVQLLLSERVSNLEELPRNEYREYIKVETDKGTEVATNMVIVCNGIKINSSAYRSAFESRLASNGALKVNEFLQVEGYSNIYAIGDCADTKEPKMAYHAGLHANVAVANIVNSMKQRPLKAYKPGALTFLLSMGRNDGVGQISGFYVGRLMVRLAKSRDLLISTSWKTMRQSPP
Nature of the experiment: resazurin reduction, fluorescence. Type of experiment: biochemical. From the text:
resazurin reduction, fluorescence on mFsp1 (mouse FSP1) | both hFSP1 and mFsp1 enzyme activity are equally sensitive to viFSP1
Background: Resazurin is reduced to fluorescent resorufin, in cell work by metabolically active cells.

The target of a further experiment is T2, hFSP1 (human FSP1) (Homo sapiens, UniProt Q9BRQ8).
T2 construct: gene AIFM2; recombinant from E. coli BL21, Ni-NTA purified (His tag implied); HA-tagged in Pfa1 cells for cell assays; cDNA carries C>T:1008 (probably silent)
T2 sequence (Q9BRQ8 2-373): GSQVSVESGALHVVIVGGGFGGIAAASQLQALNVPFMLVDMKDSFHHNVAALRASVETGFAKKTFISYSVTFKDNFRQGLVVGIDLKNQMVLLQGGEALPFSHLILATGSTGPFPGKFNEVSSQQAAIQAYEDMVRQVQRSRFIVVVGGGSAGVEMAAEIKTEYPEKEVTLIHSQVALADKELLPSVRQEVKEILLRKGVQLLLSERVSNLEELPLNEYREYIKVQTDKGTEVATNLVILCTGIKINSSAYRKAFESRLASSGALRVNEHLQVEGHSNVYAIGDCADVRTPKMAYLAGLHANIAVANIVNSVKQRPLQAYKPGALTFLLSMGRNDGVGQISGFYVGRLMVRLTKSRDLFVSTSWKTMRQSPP
Nature of the experiment: resazurin reduction, fluorescence. Format: biochemical.

The record followed here is article PMC10643123, “Integrated chemical and genetic screens unveil FSP1 mechanisms of ferroptosis regulation” (Nature Structural & Molecular Biology, 2023).

As usually defined, the IC50 is the midpoint of a concentration-inhibition curve.

Each structure is given as a SMILES string. Like-named read-outs stand apart in the source and are kept apart here.

For `COc1ccc(N2CC(=O)C(c3nc(C)cs3)=C2N)c(OC)c1` [viFSP1], the IC50 against mFsp1 (mouse FSP1) came to 0.083 µM; at hFSP1 (human FSP1) (read-out: IC50), 0.034 µM.
As for `Cc1ccc(-c2c(C#N)c(N)n3c(nc4ccccc43)c2C#N)cc1` [iFSP1], the IC50 result on hFSP1 (human FSP1) ([…] NADH, […] resazurin, TBS, […] C) is “dose–response curves for the effect of iFSP1 on the activity of FSP1 mutants”.
